This is an account of results in ChEMBL document CHEMBL4340562, “Discovery of novel pyridazine derivatives as glucose transporter type 4 (GLUT4) translocation activators” (Bioorg Med Chem Lett, 2019).

SMILES strings stand for the structures. Active and inactive are the calls of the source. The rule behind the calls is not given here.

Series [1] addresses T1, Solute carrier family 2, facilitated glucose transporter member 4 (Rattus norvegicus) (UniProt P19357).
T1 sequence (whole entry): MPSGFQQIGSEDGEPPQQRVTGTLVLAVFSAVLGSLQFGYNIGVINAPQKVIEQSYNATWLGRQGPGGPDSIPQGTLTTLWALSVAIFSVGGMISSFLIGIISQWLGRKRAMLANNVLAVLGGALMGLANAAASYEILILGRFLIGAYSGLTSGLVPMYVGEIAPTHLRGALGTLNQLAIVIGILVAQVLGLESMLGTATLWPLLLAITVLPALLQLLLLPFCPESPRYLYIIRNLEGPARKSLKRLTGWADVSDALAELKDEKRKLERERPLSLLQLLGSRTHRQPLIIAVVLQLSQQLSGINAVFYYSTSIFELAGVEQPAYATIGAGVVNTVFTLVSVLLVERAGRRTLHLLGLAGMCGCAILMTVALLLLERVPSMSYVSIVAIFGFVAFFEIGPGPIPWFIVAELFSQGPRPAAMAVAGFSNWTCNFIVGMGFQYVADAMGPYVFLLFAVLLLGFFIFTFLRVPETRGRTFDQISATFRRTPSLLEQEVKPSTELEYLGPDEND
The series can be described thus: Induction of GLUT4 translocation in rat L6-GLUT4myc differentiated myotube cells at 30 uM after 20 mins by chemiluminescent method relative to 30 uM 2-(4-(4-phenylphthalazin-1-ylamino)phenyl)acetamide.

The target in series [2] is T1, Solute carrier family 2, facilitated glucose transporter member 4 (Rattus norvegicus). The series can be described thus: Induction of GLUT4 translocation in rat L6-GLUT4myc differentiated myotube cells at 3 uM after 20 mins by chemiluminescent method relative to 30 uM 2-(4-(4-(2-methoxyphenyl)-6,7-dihydro-5H-cyclopenta[d]pyridazin-1-ylamino)phenyl)acetamide.
The target is the same in series [3]. Description: Induction of GLUT4 translocation in rat L6-GLUT4myc differentiated myotube cells at 3 uM after 20 mins by chemiluminescent method relative to 2-(4-(4-(2-methoxyphenyl)phthalazin-1-ylamino)phenyl)acetamide.
A short description of series [4]: Stability of the compound in mouse liver microsomes assessed as parent compound remaining after 30 mins relative to control. The format is ADME, Microsome. As to conditions: read-out: Stability.
Series [5] in a line: 1-octanol/PBS distribution co-efficient, log D of the compound at pH 7.4. The format is physicochemical.
Series [6] is described as follows: AUC (0 to 4 hrs) in db/db mouse plasma at 30 mg/kg, po measured up to 4 hrs. On the set-up: time < 4 hr, dose 30 mg/kg, route oral. It is filed as ADME, organism-based.
In series [7] the test system is Mus musculus. The series can be described thus: Antidiabetic activity in db/db mouse assessed as reduction in fasting plasma glucose AUC at 3 mg/kg, po measured up to 4 hrs. The format is functional, organism-based. On the set-up: dose 3 mg/kg, time < 4 hr.
The test system of series [8] is Mus musculus. Description: Antidiabetic activity in db/db mouse assessed as reduction in fasting plasma glucose level at 3 to 30 mg/kg, po measured up to 4 hrs. The format is functional, organism-based.
Series [9] is described as follows: AUC (0 to 4 hrs) in db/db mouse plasma at 10 mg/kg, po measured up to 4 hrs. It is filed as ADME, organism-based. More on the design: dose 10 mg/kg, time < 4 hr, route oral.
The subject of series [10] is Mus musculus. The series can be described thus: Antidiabetic activity in db/db mouse assessed as reduction in fasting plasma glucose AUC at 30 mg/kg, po measured up to 4 hrs. It is filed as functional, organism-based. On the set-up: dose 30 mg/kg, time < 4 hr.
Series [11] in a line: AUC (0 to 4 hrs) in db/db mouse plasma at 3 to 30 mg/kg, po measured up to 4 hrs. As to conditions: in vivo. It is filed as ADME, organism-based.
The test system of series [12] is Mus musculus. Description: Antidiabetic activity in db/db mouse assessed as reduction in fasting plasma glucose level at 10 mg/kg, po measured up to 4 hrs. The format is functional.
A short description of series [13]: Cmax in db/db mouse plasma at 3 mg/kg, po measured up to 4 hrs. The format is ADME, organism-based. On the set-up: dose 3 mg/kg, route oral.
Series [14] is described as follows: AUC (0 to 4 hrs) in db/db mouse plasma at 3 mg/kg, po measured up to 4 hrs. The format is ADME, organism-based. More on the design: dose 3 mg/kg, time < 4 hr, route oral.
Series [15] in a line: Cmax in db/db mouse plasma at 10 mg/kg, po measured up to 4 hrs. The format is ADME, organism-based. On the set-up: dose 10 mg/kg, route oral.
Series [16] relates to Mus musculus. Description: Antidiabetic activity in db/db mouse assessed as reduction in fasting plasma glucose AUC at 10 mg/kg, po measured up to 4 hrs. The format is functional, organism-based. More on the design: dose 10 mg/kg, time < 4 hr.
The subject of series [17] is Mus musculus. Description: Antidiabetic activity in db/db mouse assessed as reduction in fasting plasma glucose level at 3 mg/kg, po measured up to 4 hrs. It is filed as functional.
Series [18] has as its system Mus musculus. Description: Antidiabetic activity in db/db mouse assessed as reduction in fasting plasma glucose level at 30 mg/kg, po measured up to 4 hrs. The format is functional.
A short description of series [19]: Cmax in db/db mouse plasma at 3 to 30 mg/kg, po measured up to 4 hrs. It is filed as ADME, organism-based. As to conditions: in vivo.
The nature of series [20]: Cmax in db/db mouse plasma at 30 mg/kg, po measured up to 4 hrs. It is filed as ADME, organism-based. More on the design: dose 30 mg/kg, route oral.
The target in series [21] is T1, Solute carrier family 2, facilitated glucose transporter member 4 (Rattus norvegicus). Description: Potency index, ratio of EC50 for 2-(4-(4-(2-methoxyphenyl)-6,7-dihydro-5H-cyclopenta[d]pyridazin-1-ylamino)phenyl)acetamide EC50 to EC50 for test compound for GLUT4 translocation activity in L6-GLUT4myc differentiated myotube cells.

Regarding `COc1ccccc1-c1nnc(Nc2ccc(CC(N)=O)cc2)c2ccccc12`, the fold change (FC) in [1] was 2.7.
With `COc1ccccc1-c1nnc(Nc2ccc(CC(N)=O)cc2)c2oc(C)cc12`, the “fold change (FC)” value in series [2] is “inactive”.
The same measure, in the same setting: the result for `COc1ccccc1-c1nnc(Nc2ccc(CS(N)(=O)=O)cc2)c2c1CCC2` reads 0.09.
As to `COc1cccc(-c2nnc(Nc3ccc(CC(N)=O)cc3)c3ccccc23)c1`, in series [1], the fold change (FC) was 1.
In the case of `COc1ccccc1-c1nnc(Nc2ccc(C3(C(N)=O)CC3)cc2)c2c1CCC2`, the fold change (FC) in series [2] came out at 0.37.
For the compound `COc1ccccc1-c1nnc(Nc2ccc(CC(N)=O)cc2C)c2c1CCC2`, the fold change (FC) in series [2] came out at 0.52.
The same measure, in the same setting: the result for `COc1ccccc1-c1nnc(Nc2ccc(CC(=O)N(C)C)cc2)c2c1CCC2` reads 0.09; that for `COc1ccccc1-c1nnc(Nc2ccc(CC(N)=O)cc2O)c2c1CCC2`, 0.09; that for `COc1ccccc1-c1nnc(Nc2ccc(CC(N)=O)cc2)c2ccsc12`, 0.97.
Consider `COc1ccccc1-c1nnc(Nc2ccc(CC(N)=O)cc2)c2occc12`, for which, in [2], the fold change (FC) worked out at 0.46.
For `COc1ccccc1-c1nnc(Nc2ccc(CC(N)=O)c(C)c2)c2c1CCC2`, the fold change (FC) in [2] was 0.36.
`CCc1c(Nc2ccc(CC(N)=O)cc2)nnc(-c2ccccc2OC)c1CC`: in series [1], the “fold change (FC)” value was “inactive”.
Regarding `COc1cc(CC(N)=O)ccc1Nc1nnc(-c2ccccc2OC)c2c1CCC2`, the fold change (FC) in [2] is 0.13.
Same read-out and setting: for `COc1ccccc1-c1nnc(Nc2ccc(CCC(N)=O)cc2)c2c1CCC2` the value was “inactive”.
For `COc1ccccc1-c1nnc(Nc2ccc(CC(N)=O)cc2)c2c1CCC2`, the fold change (FC) in series [1] was 4.7; in series [3], 2. Also, the remaining at 0.5 h in [4] was 90%. In addition, the pH-dependent lipophilicity (logD) (commonly the decadic logarithm of the distribution of all forms, ionised or not, between an organic phase and buffer at a given pH) in series [5] stood at 2.3.
For `COc1ccccc1-c1nnc(Nc2ccc(CC(N)=O)cc2F)c2c1CCC2`, the fold change (FC) in series [2] worked out at 0.85.
For the compound `COCCOc1ccccc1-c1nnc(Nc2ccc(CC(N)=O)cc2F)c2ccsc12`, the AUC(0-t) (as a rule, the area under the concentration-time curve up to a stated or last time point) at 4 h in [6] came out at 12.6 µM·h; in [9], 10.6 µM·h; in series [14], 9.01 µM·h. The AUC with Mus musculus [7] was 644 mg/dl.hr; with Mus musculus [10] it was 1210 mg/dl.hr; in [11], “Dose-dependent effect”; with Mus musculus [16], 1160 mg/dl.hr. In addition, the Activity result in the series with Mus musculus [8] is “Dose-dependent effect”. Moreover, the remaining at 0.5 h in series [4] was determined as 66%. The same compound yielded a pH-dependent lipophilicity (logD) in series [5] of 2.1. The Emax in the series with Mus musculus [12] was 393 mg/dL; with Mus musculus [17], 220 mg/dL; in the series on Mus musculus [18] it was 435 mg/dL. Also, the Cmax (as a rule, the peak of the concentration-time curve) in [13] is 3.38 µM; in series [15], 4 µM; in [19], “Dose-dependent effect”; in series [20] it was 4.38 µM.
Regarding `COc1ccccc1-c1nnc(Nc2ccc(CC(N)=O)cc2)c2ccoc12`, the fold change (FC) in [2] was found to be 0.33.
For `COc1ccccc1-c1nnc(Nc2ccc(CC(N)=O)c(F)c2)c2c1CCC2`, the fold change (FC) in series [2] came to 0.56.
With `COc1ccc(-c2nnc(Nc3ccc(CC(N)=O)cc3)c3ccccc23)cc1`, the “fold change (FC)” value in series [1] was “inactive”.
On to `COc1ccccc1-c1nnc(Nc2cccc(CC(N)=O)c2)c2c1CCC2`, for which the fold change (FC) in series [2] worked out at 0.04.
As to `NC(=O)Cc1ccc(Nc2nnc(-c3ccccc3OCc3ccccn3)c3sccc23)c(F)c1`, the remaining at 0.5 h in [4] is 19%. This compound also came in with a log distribution coefficient (logD) in [5] of 2.9.
Consider `CNC(=O)Cc1ccc(Nc2nnc(-c3ccccc3OC)c3c2CCC3)cc1`, for which the fold change (FC) in [2] came to 0.08.
Take `COc1ccccc1-c1nnc(Nc2ccc(CC(N)=O)cc2F)c2ccsc12`: the remaining at 0.5 h in [4] is 92%. In series [5], this compound had a log distribution coefficient (logD) of 2.6. Further, the Ratio EC50 in series [21] turned out to be 7.
With `CC(C)(C)OC(=O)NCCOCCOc1ccccc1-c1nnc(Nc2ccc(CC(N)=O)cc2F)c2ccsc12`, the remaining at 0.5 h in series [4] turned out to be 15%. The compound also had a pH-dependent lipophilicity (logD) in series [5] of 3.2.
On to `COc1ccccc1-c1nnc(Nc2ccc(CC(N)=O)cc2)c2sccc12`, for which the fold change (FC) in series [2] is 0.67.
On to `NC(=O)Cc1ccc(Nc2nnc(-c3ccccc3OCc3cscn3)c3sccc23)c(F)c1`, for which the remaining at 0.5 h in series [4] worked out at 79%. Moreover, in [5], the logD was determined as 2.6.
As to `CCc1ccccc1-c1nnc(Nc2ccc(CC(N)=O)cc2)c2ccccc12`, the fold change (FC) in series [1] is 1.7.
With `CC(C)(C)NC(=O)NCCOCCOc1ccccc1-c1nnc(Nc2ccc(CC(N)=O)cc2F)c2ccsc12`, the remaining at 0.5 h in series [4] is 2%. Further, in series [5], the log distribution coefficient (logD) was 2.9.
In the same order, the values of `NC(=O)Cc1ccc(Nc2nnc(-c3ccccc3OCC3COCCO3)c3sccc23)c(F)c1` (stereo unspecified) are over 100% and 1.8.
For `COc1ccccc1-c1nnc(Nc2ccc(C(C)(C)C(N)=O)cc2)c2c1CCC2`, in [2], the fold change (FC) came out at 0.3.
For the compound `COc1ccccc1-c1nnc(Nc2ccc(CC(N)=O)cc2Cl)c2c1CCC2`, the fold change (FC) in series [2] turned out to be 0.45.
Consider `COc1ccccc1-c1nnc(Nc2ccc(CC(N)=O)cc2)c(C)c1C`, for which the fold change (FC) in series [1] stood at 3.7.
On to `Cc1ccccc1-c1nnc(Nc2ccc(CC(N)=O)cc2)c2ccccc12`, for which the fold change (FC) in series [1] came out at 1.6.
Consider `COCCOCCOc1ccccc1-c1nnc(Nc2ccc(CC(N)=O)cc2F)c2ccsc12`, for which the remaining at 0.5 h in [4] was found to be 82%. Besides, in series [5], the logD was determined as 1.8.
As to `COc1ccccc1-c1nnc(Nc2ccc(C(N)=O)cc2)c2c1CCC2`, the fold change (FC) in series [2] is 0.1.
For `COc1ccccc1-c1nnc(Nc2ccc(CC(N)=O)cc2C(F)(F)F)c2c1CCC2`, the fold change (FC) in series [2] came to 0.12.
As to `Cc1cccc(-c2nnc(Nc3ccc(CC(N)=O)cc3)c3ccccc23)c1`, the fold change (FC) in series [1] is 1.3.
As for `COc1ccccc1-c1nnc(Nc2ccc(CC(N)=O)cc2)c2c1CCCC2`, the fold change (FC) in series [1] is 0.9.
